Experimental data published in PubChem BioAssay AID1963982 (Molecular Pharmacology Branch, DTP, NCI, 2024).

Test system: 313798-341-R-J2-PDC spheroids, viability
Assay: Anticancer human tumor 313798-341-R-J2-PDC patient-derived cervical squamous cell carcinoma cell line growth inhibition [PI3K]
Details: spheroids with HUVEC and MSC; for IC50: curve of first compound; for viability, T/C: stronger effect = lower value
In short: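 Targeted small molecules plus PI3K inhibitors, half-log dose series from Cmax (default top 10 microM), were applied to heterotypic spheroids of cancer cells with HUVEC and MSCs. Viability indicated growth inhibition.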

[1] = second compound 0.0316 µM, first compound 0.0316 µM
[2] = second compound 0.0316 µM, first compound 0.1 µM
[3] = second compound 0.0316 µM, first compound 0.316 µM
[4] = second compound 0.0316 µM, first compound 1 µM
[5] = second compound 0.0316 µM, first compound 3.16 µM
[6] = second compound 0.0316 µM, first compound 10 µM
[7] = second compound 0.1 µM, first compound 0.0316 µM
[8] = second compound 0.1 µM, first compound 0.1 µM
[9] = second compound 0.1 µM, first compound 0.316 µM
[10] = second compound 0.1 µM, first compound 1 µM
[11] = second compound 0.1 µM, first compound 3.16 µM
[12] = second compound 0.1 µM, first compound 10 µM
[13] = second compound 0.316 µM, first compound 0.0316 µM
[14] = second compound 0.316 µM, first compound 0.1 µM
[15] = second compound 0.316 µM, first compound 0.316 µM
[16] = second compound 0.316 µM, first compound 1 µM
[17] = second compound 0.316 µM, first compound 3.16 µM
[18] = second compound 0.316 µM, first compound 10 µM
[19] = second compound 1 µM, first compound 0.0316 µM
[20] = second compound 1 µM, first compound 0.1 µM
[21] = second compound 1 µM, first compound 0.316 µM
[22] = second compound 1 µM, first compound 1 µM
[23] = second compound 1 µM, first compound 3.16 µM
[24] = second compound 1 µM, first compound 10 µM
[25] = second compound 3.16 µM, first compound 0.0316 µM
[26] = second compound 3.16 µM, first compound 0.1 µM
[27] = second compound 3.16 µM, first compound 0.316 µM
[28] = second compound 3.16 µM, first compound 1 µM
[29] = second compound 3.16 µM, first compound 3.16 µM
[30] = second compound 3.16 µM, first compound 10 µM
[31] = second compound 10 µM, first compound 0.0316 µM
[32] = second compound 10 µM, first compound 0.1 µM
[33] = second compound 10 µM, first compound 0.316 µM
[34] = second compound 10 µM, first compound 1 µM
[35] = second compound 10 µM, first compound 3.16 µM
[36] = second compound 10 µM, first compound 10 µM
[37] = second compound 0.0316 µM, first compound 0.00316 µM
[38] = second compound 0.0316 µM, first compound 0.01 µM
[39] = second compound 0.1 µM, first compound 0.00316 µM
[40] = second compound 0.1 µM, first compound 0.01 µM
[41] = second compound 0.316 µM, first compound 0.00316 µM
[42] = second compound 0.316 µM, first compound 0.01 µM
[43] = second compound 1 µM, first compound 0.00316 µM
[44] = second compound 1 µM, first compound 0.01 µM
[45] = second compound 3.16 µM, first compound 0.00316 µM
[46] = second compound 3.16 µM, first compound 0.01 µM
[47] = second compound 10 µM, first compound 0.00316 µM
[48] = second compound 10 µM, first compound 0.01 µM
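Note: spheroids exposed to compounds for seven days.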
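Throughout, for viability, T/C: 100% = DMSO vehicle control viability.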

CC(C)NCC(C(=O)N1CCN(c2ncnc3c2C(C)CC3O)CC1)c1ccc(Cl)cc1 (stereo not drawn) + CC(Nc1ncnc2nc[nH]c12)c1cc2cccc(Cl)c2c(=O)n1-c1ccccc1
IC50 (second compound 0.0316 µM): 1610 nM
IC50 (second compound 0.1 µM): 1870 nM
IC50 (second compound 0.316 µM): 1720 nM
IC50 (second compound 1 µM): 1800 nM
IC50 (second compound 3.16 µM): 1880 nM
IC50 (second compound 10 µM): 1410 nM
viability, T/C [1]: 114%
viability, T/C [2]: 91.3%
viability, T/C [3]: 81.7%
viability, T/C [4]: 54%
viability, T/C [5]: 40.1%
viability, T/C [6]: 29.6%
viability, T/C [7]: 102%
viability, T/C [8]: 103%
viability, T/C [9]: 90.2%
viability, T/C [10]: 65.2%
viability, T/C [11]: 36.9%
viability, T/C [12]: 30.5%
viability, T/C [13]: 94%
viability, T/C [14]: 100%
viability, T/C [15]: 84.2%
viability, T/C [16]: 62%
viability, T/C [17]: 36.9%
viability, T/C [18]: 30%
viability, T/C [19]: 97.3%
viability, T/C [20]: 100%
viability, T/C [21]: 89.9%
viability, T/C [22]: 57.5%
viability, T/C [23]: 44.2%
viability, T/C [24]: 26.9%
viability, T/C [25]: 96.7%
viability, T/C [26]: 87.4%
viability, T/C [27]: 89.8%
viability, T/C [28]: 63.2%
viability, T/C [29]: 39.1%
viability, T/C [30]: 26.7%
viability, T/C [31]: 91.3%
viability, T/C [32]: 86.3%
viability, T/C [33]: 75.9%
viability, T/C [34]: 53.7%
viability, T/C [35]: 39%
viability, T/C [36]: 27.1%

CCN1CCN(Cc2ccc(Nc3ncc(F)c(-c4cc(F)c5nc(C)n(C(C)C)c5c4)n3)nc2)CC1 + CC(Nc1ncnc2nc[nH]c12)c1cc2cccc(Cl)c2c(=O)n1-c1ccccc1
IC50 (second compound 0.0316 µM): > 1000 nM
IC50 (second compound 0.1 µM): > 1000 nM
IC50 (second compound 0.316 µM): > 1000 nM
IC50 (second compound 1 µM): > 1000 nM
IC50 (second compound 3.16 µM): > 1000 nM
IC50 (second compound 10 µM): > 1000 nM
viability, T/C [37]: 98.9%
viability, T/C [38]: 98.3%
viability, T/C [1]: 114%
viability, T/C [2]: 114%
viability, T/C [3]: 96%
viability, T/C [4]: 123%
viability, T/C [39]: 105%
viability, T/C [40]: 110%
viability, T/C [7]: 103%
viability, T/C [8]: 113%
viability, T/C [9]: 102%
viability, T/C [10]: 115%
viability, T/C [41]: 94.5%
viability, T/C [42]: 100%
viability, T/C [13]: 92.3%
viability, T/C [14]: 96.9%
viability, T/C [15]: 104%
viability, T/C [16]: 107%
viability, T/C [43]: 104%
viability, T/C [44]: 95.3%
viability, T/C [19]: 99.8%
viability, T/C [20]: 101%
viability, T/C [21]: 104%
viability, T/C [22]: 109%
viability, T/C [45]: 103%
viability, T/C [46]: 94.6%
viability, T/C [25]: 98.1%
viability, T/C [26]: 99.8%
viability, T/C [27]: 108%
viability, T/C [28]: 89.8%
viability, T/C [47]: 100%
viability, T/C [48]: 91.5%
viability, T/C [31]: 83.9%
viability, T/C [32]: 85.8%
viability, T/C [33]: 82.4%
viability, T/C [34]: 89.5%

C[C@@H](NC(=O)c1ncnc(N)c1Cl)c1ncc(C(=O)Nc2cc(C(F)(F)F)c(Cl)cn2)s1 + CC(Nc1ncnc2nc[nH]c12)c1cc2cccc(Cl)c2c(=O)n1-c1ccccc1
IC50 (second compound 0.0316 µM): > 10000 nM
IC50 (second compound 0.1 µM): > 10000 nM
IC50 (second compound 0.316 µM): > 10000 nM
IC50 (second compound 1 µM): > 10000 nM
IC50 (second compound 3.16 µM): > 10000 nM
IC50 (second compound 10 µM): > 10000 nM
viability, T/C [1]: 90.2%
viability, T/C [2]: 104%
viability, T/C [3]: 106%
viability, T/C [4]: 112%
viability, T/C [5]: 100%
viability, T/C [6]: 101%
viability, T/C [7]: 98.3%
viability, T/C [8]: 100%
viability, T/C [9]: 98.3%
viability, T/C [10]: 98.7%
viability, T/C [11]: 110%
viability, T/C [12]: 117%
viability, T/C [13]: 99.3%
viability, T/C [14]: 102%
viability, T/C [15]: 101%
viability, T/C [16]: 97.7%
viability, T/C [17]: 103%
viability, T/C [18]: 105%
viability, T/C [19]: 98.5%
viability, T/C [20]: 106%
viability, T/C [21]: 90.9%
viability, T/C [22]: 101%
viability, T/C [23]: 104%
viability, T/C [24]: 95.7%
viability, T/C [25]: 98%
viability, T/C [26]: 100%
viability, T/C [27]: 98.6%
viability, T/C [28]: 98.9%
viability, T/C [29]: 106%
viability, T/C [30]: 96.1%
viability, T/C [31]: 94%
viability, T/C [32]: 85.2%
viability, T/C [33]: 82.8%
viability, T/C [34]: 86.7%
viability, T/C [35]: 89.9%
viability, T/C [36]: 88.6%

Cn1ncnc1[C@H]1c2n[nH]c(=O)c3cc(F)cc(c23)N[C@@H]1c1ccc(F)cc1 + CC(Nc1ncnc2nc[nH]c12)c1cc2cccc(Cl)c2c(=O)n1-c1ccccc1
IC50 (second compound 0.0316 µM): > 100 nM
IC50 (second compound 0.1 µM): > 100 nM
IC50 (second compound 0.316 µM): > 100 nM
IC50 (second compound 1 µM): > 100 nM
IC50 (second compound 3.16 µM): > 100 nM
IC50 (second compound 10 µM): > 100 nM
viability, T/C (second compound 0.0316 µM, first compound 0.000316 µM): 110%
viability, T/C (second compound 0.0316 µM, first compound 0.001 µM): 94.2%
viability, T/C [37]: 89.2%
viability, T/C [38]: 109%
viability, T/C [1]: 89.5%
viability, T/C [2]: 77.1%
viability, T/C (second compound 0.1 µM, first compound 0.000316 µM): 94.7%
viability, T/C (second compound 0.1 µM, first compound 0.001 µM): 101%
viability, T/C [39]: 91.8%
viability, T/C [40]: 96.7%
viability, T/C [7]: 97.4%
viability, T/C [8]: 84%
viability, T/C (second compound 0.316 µM, first compound 0.000316 µM): 92.6%
viability, T/C (second compound 0.316 µM, first compound 0.001 µM): 103%
viability, T/C [41]: 102%
viability, T/C [42]: 105%
viability, T/C [13]: 85.8%
viability, T/C [14]: 85.2%
viability, T/C (second compound 1 µM, first compound 0.000316 µM): 102%
viability, T/C (second compound 1 µM, first compound 0.001 µM): 102%
viability, T/C [43]: 103%
viability, T/C [44]: 95.5%
viability, T/C [19]: 90.9%
viability, T/C [20]: 86.2%
viability, T/C (second compound 3.16 µM, first compound 0.000316 µM): 92.9%
viability, T/C (second compound 3.16 µM, first compound 0.001 µM): 91.1%
viability, T/C [45]: 87.7%
viability, T/C [46]: 95.5%
viability, T/C [25]: 84.1%
viability, T/C [26]: 79.9%
viability, T/C (second compound 10 µM, first compound 0.000316 µM): 88.1%
viability, T/C (second compound 10 µM, first compound 0.001 µM): 80.8%
viability, T/C [47]: 73.8%
viability, T/C [48]: 78.6%
viability, T/C [31]: 74.3%
viability, T/C [32]: 61.5%
